The experiment deals with T1, CFTR (Homo sapiens, UniProt P13569, DEL508-508).
T1 construct: endogenous in cells; host or cells: primary human bronchial epithelial cells from CF subjects (F508del/MF-HBE), differentiated at air-liquid interface
Description: HBE assay: Ussing chamber assay of CFTR-mediated short-circuit currents. It is filed as cell-based. The conditions noted are these: for activation at 10 µM: read-out: HBE Activity at 10 μM (%); for EC50: read-out: HBE EC50; for Emax: read-out: HBE Max Activity (%). In a few lines: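 CFTR-mediated Isc (μA/cm²) equals the peak response to apical 20 μM forskolin minus the residual after a 20 μM each BPO/GlyH-101/CFTR inhibitor 172 cocktail, recorded in Ussing chambers at Vhold 0 mV, 37 °C, pH 7.4, with 30 μM apical amiloride. Cells were F508del/MF HBE cultures preincubated 18-24 h with corrector (concentration range or 10 μM) plus 1 μM ivacaftor in 20% human serum.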

SMILES strings stand for the structures. Where two headings read alike, the source gives them in different places.

T1 sequence (P13569 with tags, fused parts or gaps DEL508-508): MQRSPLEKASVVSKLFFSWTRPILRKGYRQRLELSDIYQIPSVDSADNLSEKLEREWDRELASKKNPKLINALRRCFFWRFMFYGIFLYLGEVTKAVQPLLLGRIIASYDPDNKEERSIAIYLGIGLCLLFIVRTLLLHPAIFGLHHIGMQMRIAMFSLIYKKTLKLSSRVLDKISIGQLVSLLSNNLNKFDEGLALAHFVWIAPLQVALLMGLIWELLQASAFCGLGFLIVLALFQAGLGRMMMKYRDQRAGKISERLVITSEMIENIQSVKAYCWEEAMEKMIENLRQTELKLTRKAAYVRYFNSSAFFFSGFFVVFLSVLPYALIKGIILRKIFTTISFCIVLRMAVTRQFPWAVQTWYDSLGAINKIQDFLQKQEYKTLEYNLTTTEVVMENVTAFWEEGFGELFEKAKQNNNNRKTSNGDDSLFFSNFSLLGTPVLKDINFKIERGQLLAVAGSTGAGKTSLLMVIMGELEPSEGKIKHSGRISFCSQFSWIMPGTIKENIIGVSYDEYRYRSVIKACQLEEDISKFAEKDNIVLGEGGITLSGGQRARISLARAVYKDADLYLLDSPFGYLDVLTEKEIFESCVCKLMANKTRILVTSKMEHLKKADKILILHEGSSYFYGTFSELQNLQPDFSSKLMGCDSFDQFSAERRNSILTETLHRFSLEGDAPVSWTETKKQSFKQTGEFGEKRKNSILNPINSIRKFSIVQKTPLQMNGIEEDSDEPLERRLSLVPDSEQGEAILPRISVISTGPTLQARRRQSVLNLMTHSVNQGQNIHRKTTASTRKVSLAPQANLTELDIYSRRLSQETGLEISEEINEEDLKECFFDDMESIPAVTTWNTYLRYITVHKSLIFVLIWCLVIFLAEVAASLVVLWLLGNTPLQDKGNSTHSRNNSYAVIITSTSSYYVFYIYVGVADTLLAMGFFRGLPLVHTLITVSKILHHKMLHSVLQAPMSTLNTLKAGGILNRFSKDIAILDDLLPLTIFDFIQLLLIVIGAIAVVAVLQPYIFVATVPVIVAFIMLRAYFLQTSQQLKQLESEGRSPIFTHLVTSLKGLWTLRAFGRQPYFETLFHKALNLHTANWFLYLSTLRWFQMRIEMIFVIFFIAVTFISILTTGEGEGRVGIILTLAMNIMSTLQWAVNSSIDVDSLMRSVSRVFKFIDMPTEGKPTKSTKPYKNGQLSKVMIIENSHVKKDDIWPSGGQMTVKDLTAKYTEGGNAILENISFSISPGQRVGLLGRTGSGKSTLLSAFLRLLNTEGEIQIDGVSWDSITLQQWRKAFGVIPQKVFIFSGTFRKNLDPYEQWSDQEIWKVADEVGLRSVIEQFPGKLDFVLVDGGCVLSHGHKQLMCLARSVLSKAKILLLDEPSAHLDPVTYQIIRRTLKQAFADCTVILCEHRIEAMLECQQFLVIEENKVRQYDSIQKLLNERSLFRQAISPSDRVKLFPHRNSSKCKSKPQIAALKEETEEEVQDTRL

Take `Cc1cccc(C)c1-c1cc2nc(n1)NS(=O)(=O)c1cccc(c1)C(=O)N(CC(=O)N1CCc3ccccc3C1C)[C@H](CC(C)(C)C)CO2` (some centres unmarked) [Compound 211]: where the note is “Table 13”, the activation at 10 µM was over 600%.

Consider `Cc1cccc(C)c1-c1cc2nc(n1)NS(=O)(=O)c1cccc(c1)C(=O)N(CC(=O)N1CCOCC1C(C)C)[C@H](CC(C)(C)C)CO2` (some centres unmarked) [Compound 212], for which, under “Table 13”, the activation at 10 µM was over 600%.

`Cc1cccc(C)c1-c1cc2nc(n1)NS(=O)(=O)c1cccc(c1)C(=O)N(CC(=O)N1CCCC1(C)C)[C@H](CC(C)(C)C)CO2` [Compound 213]: the activation at 10 µM (Table 13) is over 600%.

As to `Cc1cccc(C)c1-c1cc2nc(n1)NS(=O)(=O)c1cccc(c1)C(=O)N(CC(=O)N1CCOCC1(C)C)[C@H](CC(C)(C)C)CO2` [Compound 214], the activation at 10 µM (Table 13) is over 600%.

`Cc1cccnc1CNC(=O)CN1C(=O)c2cccc(c2)S(=O)(=O)Nc2nc(cc(-c3c(C)cccc3C)n2)OC[C@H]1CC(C)(C)C` [Compound 215]: the activation at 10 µM (Table 12) is over 600%.

On to `Cc1cccc(C)c1-c1cc2nc(n1)NS(=O)(=O)c1cccc(c1)C(=O)N(CC(=O)NCc1cnccn1)[C@H](CC(C)(C)C)CO2` [Compound 216], for which the activation at 10 µM (Table 12) is over 600%.

Consider `Cc1ccccc1CNC(=O)CN1C(=O)c2cccc(c2)S(=O)(=O)Nc2nc(cc(-c3c(C)cccc3C)n2)OC[C@H]1CC(C)(C)C` [Compound 217], for which, where the note is “Table 12”, the activation at 10 µM is over 600%.

As for `Cc1ccnc(CNC(=O)CN2C(=O)c3cccc(c3)S(=O)(=O)Nc3nc(cc(-c4c(C)cccc4C)n3)OC[C@H]2CC(C)(C)C)c1` [Compound 218], the activation at 10 µM (Table 12) is over 600%.

Turning to `Cc1cccc(C)c1-c1cc2nc(n1)NS(=O)(=O)c1cccc(c1)C(=O)N(CC(=O)NCc1ccccc1)[C@H](CC(C)(C)C)CO2` [Compound 219], the activation at 10 µM (Table 13) was over 600%.

As to `Cc1cccc(C)c1-c1cc2nc(n1)NS(=O)(=O)c1cccc(c1)C(=O)N(CC(=O)NCc1ccccn1)[C@H](CC(C)(C)C)CO2` [Compound 220], the activation at 10 µM (Table 13) is over 600%.

By EC50 is commonly meant the concentration that produces a half-maximal response. For `Cc1cccc(C)c1-c1cc2nc(n1)NS(=O)(=O)c1cccc(c1)C(=O)N(CC(=O)N(C)Cc1ccccn1)[C@H](CC(C)(C)C)CO2` [Compound 221], for the setting “Table 12”, the EC50 is under 1 µM and the Emax was over 60%.

On to `Cc1cccc(C)c1-c1cc2nc(n1)NS(=O)(=O)c1cccc(c1)C(=O)N(CC(=O)N(C)CC1CCOCC1)[C@H](CC(C)(C)C)CO2` [Compound 223], for which the activation at 10 µM (Table 13) was over 600%.

As for `Cc1cccc(C)c1-c1cc2nc(n1)NS(=O)(=O)c1cccc(c1)C(=O)N(CC(=O)N(C)CCN(C)C)[C@H](CC(C)(C)C)CO2` [Compound 224], the activation at 10 µM (Table 12) was over 600%.

With `Cc1cccc(C)c1-c1cc2nc(n1)NS(=O)(=O)c1cccc(c1)C(=O)N(CC(=O)N(C)CC1CCCCO1)[C@H](CC(C)(C)C)CO2` (some centres unmarked) [Compound 225], where the note is “Table 13”, the activation at 10 µM is over 600%.

`Cc1cccc(C)c1-c1cc2nc(n1)NS(=O)(=O)c1cccc(c1)C(=O)N(CC(=O)N(C)CCN1CCOCC1)[C@H](CC(C)(C)C)CO2` [Compound 226]: the activation at 10 µM (Table 13) is over 600%.

Turning to `Cc1cccc(C)c1-c1cc2nc(n1)NS(=O)(=O)c1cccc(c1)C(=O)N(CC(=O)NCC1CCCC1)[C@H](CC(C)(C)C)CO2` [Compound 228], for the setting “Table 12”, the activation at 10 µM lay in the range of 30 to 60%.

On to `Cc1cccc(C)c1-c1cc2nc(n1)NS(=O)(=O)c1cccc(c1)C(=O)N(CC(=O)N(C)CC1CCCC1)[C@H](CC(C)(C)C)CO2` [Compound 229], for which the activation at 10 µM (Table 12) was over 600%.

`Cc1cccc(C)c1-c1cc2nc(n1)NS(=O)(=O)c1cccc(c1)C(=O)N(CC(=O)NCC1CCCCC1)[C@H](CC(C)(C)C)CO2` [Compound 230]: where the note is “Table 12”, the EC50 is under 1 µM and the Emax is over 60%.

Regarding `Cc1cccc(C)c1-c1cc2nc(n1)NS(=O)(=O)c1cccc(c1)C(=O)N(CC(=O)N(C)CC1CCCCC1)[C@H](CC(C)(C)C)CO2` [Compound 231], for the setting “Table 12”, the EC50 is under 1 µM and the Emax was over 60%.

In the case of `Cc1cccc(C)c1-c1cc2nc(n1)NS(=O)(=O)c1cccc(c1)C(=O)N(Cc1cn(C(C)C)cn1)[C@H](CC(C)(C)C)CO2` [Compound 232], the activation at 10 µM (Table 12) is over 600%.

Turning to `Cc1cccc(C)c1-c1cc2nc(n1)NS(=O)(=O)c1cccc(c1)C(=O)N(Cc1ccc(C3CCCCC3)nn1)[C@H](CC(C)(C)C)CO2` [Compound 233], the activation at 10 µM (Table 12) is over 600%.

As to `Cc1cccc(C)c1-c1cc2nc(n1)NS(=O)(=O)c1cccc(c1)C(=O)N(Cc1ccc(OC(C)C)nn1)[C@H](CC(C)(C)C)CO2` [Compound 234], for the setting “Table 13”, the concentration for a half-maximal effect (EC50) is under 1 µM and the Emax was over 60%.

Consider `Cc1cccc(C)c1-c1cc2nc(n1)NS(=O)(=O)c1cccc(c1)C(=O)N(Cc1cccc(N(CC3CC3)C(C)C)n1)[C@H](CC(C)(C)C)CO2` [Compound 235], for which, for the setting “Table 13”, the EC50 is under 1 µM and the Emax was over 60%.

As for `Cc1cccc(C)c1-c1cc2nc(n1)NS(=O)(=O)c1cccc(c1)C(=O)N(Cc1cccc(N(CCOC(C)C)C(C)C)n1)[C@H](CC(C)(C)C)CO2` [Compound 236], where the note is “Table 13”, the EC50 lay within 1 to 3 µM and the Emax was over 60%.

In the case of `Cc1cccc(C)c1-c1cc2nc(n1)NS(=O)(=O)c1cccc(c1)C(=O)N(Cc1ccc(C3=CCCCC3)nn1)[C@H](CC(C)(C)C)CO2` [Compound 237], the activation at 10 µM (Table 12) was over 600%.

Take `Cc1cccc(C)c1-c1cc2nc(n1)NS(=O)(=O)c1cccc(c1)C(=O)N(Cc1ccc(N3CCC(C)(C)C3)nn1)[C@H](CC(C)(C)C)CO2` [Compound 238]: for the setting “Table 12”, the concentration for a half-maximal effect (EC50) was under 1 µM and the Emax fell in the range of 30 to 60%.

For the compound `Cc1cccc(C)c1-c1cc2nc(n1)NS(=O)(=O)c1cccc(c1)C(=O)N(Cc1ncc(OC(C)C)cn1)[C@H](CC(C)C)CO2` [Compound 239], for the setting “Table 12”, the EC50 was 1 to 3 µM and the Emax is over 60%.

For `Cc1cccc(C)c1-c1cc2nc(n1)NS(=O)(=O)c1cccc(c1)C(=O)N(Cc1cnc(C3CCOCC3)cn1)[C@H](CC(C)C)CO2` [Compound 240], under “Table 12”, the 50% effective concentration (EC50) is under 1 µM and the Emax was over 60%.

Consider `Cc1cccc(C(C)C)c1-c1cc2nc(n1)NS(=O)(=O)c1cccc(c1)C(=O)N(Cc1ncc(OC(C)C)cn1)[C@H](CC(C)C)CO2` [Compound 241], for which, for the setting “Table 12”, the activation at 10 µM is over 600%.

`Cc1cccc(C(C)C)c1-c1cc2nc(n1)NS(=O)(=O)c1cccc(c1)C(=O)N(Cc1cnc(C3CCOCC3)cn1)[C@H](CC(C)C)CO2` [Compound 242]: where the note is “Table 12”, the activation at 10 µM was over 600%.

`Cc1cccc(C)c1-c1cc2nc(n1)NS(=O)(=O)c1cccc(c1)C(=O)N(Cc1cncc(N(C)C(C(=O)O)C(C)C)n1)[C@H](CC(C)(C)C)CO2` (some centres unmarked) [Compound 243]: the activation at 10 µM (Table 12) was over 600%.

On to `COc1cc(Br)cnc1CN1C(=O)c2cccc(c2)S(=O)(=O)Nc2nc(cc(-c3c(C)cccc3C)n2)OC[C@H]1CC(C)(C)C` [Compound 244], for which the activation at 10 µM (Table 13) was over 600%.

On to `Cc1cccc(C)c1-c1cc2nc(n1)NS(=O)(=O)c1cccc(c1)C(=O)N(Cc1ccc(C(=O)N3CCOCC3)cn1)[C@H](CC(C)(C)C)CO2` [Compound 245], for which the activation at 10 µM (Table 13) is over 600%.

Turning to `Cc1cccc(C)c1-c1cc2nc(n1)NS(=O)(=O)c1cccc(c1)C(=O)N(Cc1ccc(C(=O)N3CCC(C)(C)C3)cn1)[C@H](CC(C)(C)C)CO2` [Compound 246], under “Table 13”, the activation at 10 µM is over 600%.

On to `Cc1cccc(C)c1-c1cc2nc(n1)NS(=O)(=O)c1cccc(c1)C(=O)N(Cc1ccc(C(=O)O)cn1)[C@H](CC(C)(C)C)CO2` [Compound 247], for which the activation at 10 µM (Table 13) lay in the range of 30 to 60%.

`COC(=O)c1ccc(CN2C(=O)c3cccc(c3)S(=O)(=O)Nc3nc(cc(-c4c(C)cccc4C)n3)OC[C@H]2CC(C)(C)C)nc1` [Compound 248]: the activation at 10 µM (Table 13) was over 600%.

Turning to `Cc1cccc(C)c1-c1cc2nc(n1)NS(=O)(=O)c1cccc(c1)C(=O)N(Cc1ccc(N3CCC(C(=O)N(C)C)CC3)cn1)[C@H](CC(C)(C)C)CO2` [Compound 249], under “Table 13”, the activation at 10 µM is over 600%.

For the compound `Cc1cccc(C)c1-c1cc2nc(n1)NS(=O)(=O)c1cccc(c1)C(=O)N(Cc1ccc(C#CC(C)(C)CO)cn1)[C@H](CC(C)(C)C)CO2` [Compound 250], under “Table 12”, the half-maximal effective concentration (EC50) was under 1 µM and the Emax is over 60%.

`Cc1cccc(C)c1-c1cc2nc(n1)NS(=O)(=O)c1cccc(c1)C(=O)N(Cc1ccc(N3CCC(C(=O)O)CC3)cn1)[C@H](CC(C)(C)C)CO2` [Compound 251]: the activation at 10 µM (Table 13) lay within 30 to 60%.

`Cc1cccc(C)c1-c1cc2nc(n1)NS(=O)(=O)c1cccc(c1)C(=O)N(Cc1ccc(C3CC3)cn1)[C@H](CC(C)(C)C)CO2` [Compound 252]: under “Table 13”, the concentration for a half-maximal effect (EC50) is under 1 µM and the Emax was over 60%.

Regarding `CC(=O)N1CCN(c2cccc(CN3C(=O)c4cccc(c4)S(=O)(=O)Nc4nc(cc(-c5c(C)cccc5C)n4)OC[C@H]3CC(C)(C)C)n2)CC1` [Compound 253], the activation at 10 µM (Table 13) is over 600%.

In the case of `Cc1cccc(C)c1-c1cc2nc(n1)NS(=O)(=O)c1cccc(c1)C(=O)N(Cc1ccc(N3CCC(C(C)(C)O)CC3)cn1)[C@H](CC(C)(C)C)CO2` [Compound 254], the activation at 10 µM (Table 13) is over 600%.

For the compound `COC(=O)C1CCN(c2ccc(CN3C(=O)c4cccc(c4)S(=O)(=O)Nc4nc(cc(-c5c(C)cccc5C)n4)OC[C@H]3CC(C)(C)C)nc2)CC1` [Compound 255], for the setting “Table 13”, the activation at 10 µM is over 600%.

In the case of `Cc1cccc(C)c1-c1cc2nc(n1)NS(=O)(=O)c1cccc(c1)C(=O)N(C(=O)c1ccccc1)[C@H](CC(C)(C)C)CO2` [Compound 256], where the note is “Table 13”, the activation at 10 µM is over 600%.

As for `Cc1cccc(C)c1-c1cc2nc(n1)NS(=O)(=O)c1cccc(c1)C(=O)N(Cc1ccc(N3CCCC3=O)cn1)[C@H](CC(C)(C)C)CO2` [Compound 257], under “Table 13”, the activation at 10 µM is over 600%.

The record behind these values is patent publication US20240150377A1, “MODULATORS OF CYSTIC FIBROSIS TRANSMEMBRANE CONDUCTANCE REGULATOR” (VERTEX PHARMACEUTICALS INCORPORATED, priority 2020, published 2024).
